This is an account of results in patent US6653476B2, “Thienopyridine derivatives, their production and use” (Takeda Chemical Industries, Ltd., priority 2000, dated 2003).

For one data set, the system named is Adjuvant Arthritis in Rats. Briefly: Effect on adjuvant arthritis in rats (footpad swelling). Particulars: male Lewis rats, 3.13 mg/kg/day orally once daily for 14 days, left footpad edema on Day 14; ** p < 0.01 vs. control. The data set is classed as in vivo. As to the method:
The test compound was suspended in 0.5% methyl cellulose and administered orally once daily for 14 days to male Lewis rats (7-week old, Japan Clea), which had been sensitized by the intradermal injection of 0.05 ml Freund's complete adjuvant (0.5% suspension of killed Mycobacterium tuberculosis in liquid paraffin) into the right hind footpad. Immediately before the sensitization (Day 0) and on 14 days after the administration (Day 14), the volume of the edema on the left footpad was measured by using a plethysmometer (manufactured by Ugo Basile Company, Italy) and the suppression rate (%) of footpad swelling relative to the unsensitized rats was calculated according to the following equation.
Suppression rate of footpad swelling (%)={1-[(volume of footpad edema in the treatment group)−(volume of footpad edema in the unsensitized group)]/[(volume of footpad edema in the non-treatment group)−(volume of footpad edema in the unsensitized group)]}×100
The results were expressed by the mean±S.E. in each group (n=6) and tested by Dunnet's comparison with a significance level of 5%.
In the case of “3-chloro-2-[(2,5-dioxopyrrolidin-1-yl)methyl]-5,6,7,8-tetrahydro-7-oxo-4-(4-methoxyphenyl)[1]-benzothieno[2,3-b]pyridine ethylene ketal [Example 13]”, the “Suppression rate of footpad swelling (%)” value is reported as 77** %.
For the compound `COc1ccc(-c2c(Cl)c(CN3C(=O)CCC3=O)nc3sc4c(c23)CC[S+]([O-])C4)cc1` (centres unmarked) [Example 22, 1-{[3-Chloro-4-(4-methoxyphenyl)-7-oxido-5,8-dihydro-6H-thiopyrano[4′,3′:4,5]thieno[2,3-b]pyridin-2-yl]methyl}-2,5-pyrrolidinedione], the “Suppression rate of footpad swelling (%)” value was 88** %.

Test system in another data set: not given
Test: not given
Details: not given
`CC(C)(C)OC(=O)COc1ccc(-c2c(Cl)c(CN3C(=O)CCC3=O)nc3sc4c(c23)CCSC4)cc1` [Example 112, tert-butyl (4-{3-chloro-2-[(2,5-dioxo-1-pyrrolidinyl)methyl]-5,8-dihydro-6H-thiopyrano[4′,3′:4,5]-thieno[2,3-b]pyridin-4-yl}phenoxy)acetate]: the melting point fell in the range of 191 to 192 °C.
For the compound `COc1ccc(-c2c(Cl)c(CN3C(=O)CCC3=O)nc3sc4c(c23)CC[S@+]([O-])C4)cc1` [Example 46, (S)-1-{[3-chloro-4-(4-methoxyphenyl)-7-oxido-5,8-dihydro-6H-thiopyrano[4′,3′:4,5]thieno[2,3-b]pyridin-2-yl]methyl}-2,5-pyrrolidinedione], the melting point is 217 to 218.5 °C (dec.).
On the same count and under the same terms, the figure for `CC(=O)Oc1ccc(-c2c(Cl)c(CN3C(=O)CCC3=O)nc3sc4c(c23)CCS(=O)(=O)C4)cc1` [Example 64, 4-{3-chloro-2-[(2,5-dioxo-1-pyrrolidinyl)methyl]-7,7-dioxido-5,8-dihydro-6H-thiopyrano[4′,3′:4,5]thieno[2,3-b]pyridin-4-yl}phenylacetate] is 272 to 273 °C; for `CC(C)(C)OC(=O)COc1ccc(-c2c(Cl)c(CN3C(=O)CCC3=O)nc3sc4c(c23)CCS(=O)(=O)C4)cc1` [Example 114, tert-butyl (4-{3-chloro-2-[(2,5-dioxo-1-pyrrolidinyl)methyl]-7,7-dioxido-5,8-dihydro-6H-thiopyrano[4′,3′:4,5]thieno[2,3-b]pyridin-4-yl}phenoxy)acetate] it is 204 to 205 °C.
The same measure, in the same setting: the figure for `CC(C)(C)OC(=O)COc1ccc(-c2c(Cl)c(CN3C(=O)CCC3=O)nc3sc4c(c23)CC[S+]([O-])C4)cc1` (centres unmarked) [Example 113, tert-butyl (4-{3-chloro-2-[(2,5-dioxo-1-pyrrolidinyl)methyl]-7-oxido-5,8-dihydro-6H-thiopyrano[4′,3′:4,5]thieno(2,3-b]pyridin-4-yl}phenoxy)-acetate] is 175 to 176 °C; for `O=C(O)COc1ccc(-c2c(Cl)c(CN3C(=O)CCC3=O)nc3sc4c(c23)CCS(=O)(=O)C4)cc1` [Example 116, (4-{3-chloro-2-[(2,5-dioxo-1-pyrrolidinyl)methyl]-7,7-dioxido-5,8-dihydro-6H-thiopyrano-[4′,3′:4,5]-thieno[2,3-b]pyridin-4-yl}phenoxy)acetic acid] it is 260 to 261 °C; for `CN(C)CC(=O)Oc1ccc(-c2c(Cl)c(CN3C(=O)CCC3=O)nc3sc4c(c23)CCS(=O)(=O)C4)cc1.Cl` it is 199 to 200 °C.
`CCC(=O)Oc1ccc(-c2c(Cl)c(CN3C(=O)CCC3=O)nc3sc4c(c23)CCS(=O)(=O)C4)cc1` [Example 65] displayed a melting point of 268 to 269 °C.
The compound `COc1ccc(-c2c(Cl)c(CN3C(=O)CCC3=O)nc3sc4c(F)c(OC)ccc4c23)cc1` [Example 60, 1-{[3-chloro-8-fluoro-7-methoxy-4-(4-methoxyphenyl)[1]-benzothieno[2,3-b]pyridin-2-yl]methyl}-2,5-pyrrolidinedione] showed a melting point of 215 to 216 °C.
`O=C(O)COc1ccc(-c2c(Cl)c(CN3C(=O)CCC3=O)nc3sc4c(c23)CC[S+]([O-])C4)cc1` (centres unmarked) [Example 115, (4-{3-chloro-2-[(2,5-dioxo-1-pyrrolidinyl)methyl]-7-oxido-5,8-dihydro-6H-thiopyrano[4′,3′:4,5]thieno[2,3-b]pyridin-4-yl}phenoxy)acetic acid] registered a melting point of 205 to 206 °C.
On the same count and under the same terms, the figure for `CCOC(=O)COc1ccc(-c2c(Cl)c(CN3C(=O)CCC3=O)nc3sc4c(c23)CCS(=O)(=O)C4)cc1` [Example 110, ethyl (4-{3-chloro-2-[(2,5-dioxo-1-pyrrolidinyl)methyl]-7,7-dioxidO-5,8-dihydro-6H-thiopyrano[4′,3′:4,5]thieno[2,3-b]pyridin-4-yl}phenoxy)acetate] is 215 to 216 °C; for `COc1ccc(-c2c(Cl)c(CN3C(=O)CCC3=O)nc3sc4c(c23)CC[S+]([O-])C4)cc1` (centres unmarked) [Example 22, 1-{[3-Chloro-4-(4-methoxyphenyl)-7-oxido-5,8-dihydro-6H-thiopyrano[4′,3′:4,5]thieno[2,3-b]pyridin-2-yl]methyl}-2,5-pyrrolidinedione] it is 268 to 269 °C.
